From US8178553B2, “Compounds for the treatment of inflammatory disorders” (Schering Corporation, priority 2006, dated 2012) come the findings set out here.

Molecules are shown by their SMILES. Read-outs that look alike come from different tables or passages of the source.

The test addresses T1, purified catalytic domain of recombinant human TACE (rhTACEc) (Homo sapiens, UniProt P78536, N452Q/S266A).
T1 construct: rhTACEc, Residue 215 to 477 with two mutation (S266A and N452Q) and a 6xHis tail; 6xHis (C); made in house; host or cells: baculovirus/Hi5 insect cells
The test is described as follows: TACE kinetic assay, cleavage of internally quenched fluorescent peptide substrate SPDL-3. In kind it is biochemical. How it is done: TACE activity is determined by a kinetic assay measuring the rate of increase in fluorescent intensity generated by TACE catalyzed cleavage of an internally quenched peptide substrate (SPDL-3). […] It is purified from the baculovirus/Hi5 cells expression system using affinity chromatography. […] MCA is (7-Methoxycoumarin-4-yl)acetyl. Dpa is N-3-(2,4-Dinitrophenyl)-L-2,3-diaminopropionyl.
A 50 μl assay mixture contains 20 mM HEPES, pH 7.3, 5 mM CaCl2, 100 µM ZnCl2, 2% DMSO, 0.04% Methylcellulose, 30 μM SPDL-3, 70 pM rhTACEc and a test compound. RhTACEc is pre-incubated with the testing compound for 90 min. at 25° C. Reaction is started by addition of the substrate. […] Rate of enzymatic reaction is shown as Units per second. Effect of a test compound is shown as % of TACE activity in the absence of the compound.

Where [1] appears, read: TACE inhibition, Table 1, read-out: Ki Rating.
[2] abbreviates: Specific TACE inhibitory activity of representative compounds, read-out: Ki.

T1 sequence (P78536 215-477 S266A/N452Q): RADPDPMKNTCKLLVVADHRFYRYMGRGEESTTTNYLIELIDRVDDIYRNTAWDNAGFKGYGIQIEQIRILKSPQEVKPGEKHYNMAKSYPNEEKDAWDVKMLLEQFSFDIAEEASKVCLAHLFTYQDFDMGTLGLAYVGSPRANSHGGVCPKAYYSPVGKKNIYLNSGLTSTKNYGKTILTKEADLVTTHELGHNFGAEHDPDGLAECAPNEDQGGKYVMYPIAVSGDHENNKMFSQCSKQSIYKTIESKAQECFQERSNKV

What is called Ki is a measure of affinity in units of concentration, obtained from inhibition or displacement. As to `COc1ccc2c(c1)C(=O)N(C[C@@]1(c3ccc(-c4cc(C(N)=O)cc(C)n4)cc3)NC(=O)NC1=O)C2` [Compound 67], under setting [1], the Ki was < 10 nM.
Regarding `COc1ccc2c(c1)C(=O)N(C[C@@]1(c3ccc(-c4cnc(N)c(C(N)=O)c4)cc3)NC(=O)NC1=O)C2` [Compound 68], the Ki by setting is: under setting [2], 0.23 nM; under setting [1], < 10 nM.
As to `CCNC(=O)c1cnc(-c2ccc([C@]3(CN4Cc5ccc(OC)cc5C4=O)NC(=O)NC3=O)cc2)cn1` [Compound 70], under setting [1], the Ki is < 10 nM.
Still for that read-out and setting: in the case of `COc1ccc2c(c1)C(=O)N(C[C@@]1(c3ccc(-c4cnc(C(=O)NC5CC5)cn4)cc3)NC(=O)NC1=O)C2` [Compound 71] it was < 10 nM; in that of `COc1ccc2c(c1)C(=O)N(C[C@@]1(c3ccc(-c4cnc(C(=O)NCC(F)(F)F)cn4)cc3)NC(=O)NC1=O)C2` [Compound 72], < 10 nM; in that of `COc1ccc2c(c1)C(=O)N(C[C@@]1(c3ccc(-c4cc(C#N)ccn4)cc3)NC(=O)NC1=O)C2` [Compound 73], < 10 nM.
For `COC(=O)c1ccnc(-c2ccc([C@]3(CN4Cc5ccc(OC)cc5C4=O)NC(=O)NC3=O)cc2)c1` [Compound 74], the Ki under setting [1] was < 10 nM.
Still for that read-out and setting: in the case of `COc1ccc2c(c1)C(=O)N(C[C@@]1(c3ccc(-c4ccc(C(N)=O)nc4)cc3)NC(=O)NC1=O)C2` [Compound 75] it was < 10 nM.
As to `COc1ccc2c(c1)C(=O)N(C[C@@]1(c3ccc(-c4cccc(C(N)=O)n4)cc3)NC(=O)NC1=O)C2` [Compound 76], the Ki under setting [2] worked out at 0.66 nM and the Ki under setting [1] was < 10 nM.
Take `CCOC(=O)c1n[nH]c2ccc(-c3ccc([C@]4(CN5Cc6ccc(OC)cc6C5=O)NC(=O)NC4=O)cc3)cc12` [Compound 77]: the Ki under setting [1] is < 10 nM.
`COc1ccc2c(c1)C(=O)N(C[C@@]1(c3ccc(-c4ccc5[nH]nc(C(N)=O)c5c4)cc3)NC(=O)NC1=O)C2` [Compound 78]: under setting [1], the Ki was < 10 nM.
`COc1ccc2c(c1)C(=O)N(C[C@@]1(c3ccc(-c4cnn(C)c4C#N)cc3)NC(=O)NC1=O)C2` [Compound 80]: the Ki under setting [1] was < 10 nM.
`COc1ccc2c(c1)C(=O)N(C[C@@]1(c3ccc(-c4cccc(C#N)c4)cc3)NC(=O)NC1=O)C2` [Compound 81]: the Ki under setting [1] is < 10 nM.
Consider `COc1ccc2c(c1)C(=O)N(C[C@@]1(c3ccc(Oc4ccc(C(=O)N5CCOCC5)cc4)cc3)NC(=O)NC1=O)C2` [Compound 82], for which, under setting [1], the Ki was < 10 nM.
Turning to `COc1ccc2c(c1)C(=O)N(C[C@@]1(c3ccc(Oc4ccc(C(=O)NCCN(C)C)cc4)cc3)NC(=O)NC1=O)C2` [Compound 83], under setting [1], the Ki is < 10 nM.
Regarding `CNC(=O)c1ccc(Oc2ccc([C@]3(CN4Cc5ccc(OC)cc5C4=O)NC(=O)NC3=O)cc2)cc1` [Compound 84], the Ki is 4 nM under setting [2] and < 10 nM under setting [1].
The matching figures for `COc1ccc2c(c1)C(=O)N(C[C@@]1(c3ccc(Oc4cccc(C(N)=O)c4)cc3)NC(=O)NC1=O)C2` [Compound 85]: 0.46 nM and < 10 nM.
As for `COC(=O)c1cccc(Oc2ccc([C@]3(CN4Cc5ccc(OC)cc5C4=O)NC(=O)NC3=O)cc2)c1` [Compound 86], under setting [1], the Ki is < 10 nM.
Turning to `COc1ccc2c(c1)C(=O)N(C[C@@]1(c3ccc(Oc4cccc(C(=O)N5CCOCC5)c4)cc3)NC(=O)NC1=O)C2` [Compound 87], the Ki under setting [1] is < 10 nM.
Take `COc1ccc2c(c1)C(=O)N(C[C@@]1(c3ccc(Oc4cccc(C(=O)N(C)C)c4)cc3)NC(=O)NC1=O)C2` [Compound 88]: the Ki under setting [1] was < 10 nM.
Take `CNC(=O)c1cccc(Oc2ccc([C@]3(CN4Cc5ccc(OC)cc5C4=O)NC(=O)NC3=O)cc2)c1` [Compound 89]: the Ki under setting [1] was < 10 nM.
Still for that read-out and setting: as for `COc1ccc2c(c1)C(=O)N(C[C@@]1(c3ccc(Oc4cccc(C(=O)NCCN(C)C)c4)cc3)NC(=O)NC1=O)C2` [Compound 90], the figure is < 10 nM; as for `CC#CCOc1ccc([C@]2(CN3Cc4ccc(OC)cc4C3=O)NC(=O)NC2=O)cc1` [Compound 91], < 10 nM; as for `COc1ccc2c(c1)C(=O)N(C[C@@]1(c3ccc(OCC#CCO)cc3)NC(=O)NC1=O)C2` [Compound 92], < 10 nM.
As to `COc1ccc2c(c1)C(=O)N(C[C@@]1(c3ccc(OC(=O)N(C)C)cc3)NC(=O)NC1=O)C2` [Compound 93], the Ki was < 10 nM.
Turning to `COc1ccc2c(c1)C(=O)N(C[C@@]1(c3ccc(C#Cc4cccnc4)cc3)NC(=O)NC1=O)C2` [Compound 94], the Ki under setting [1] was < 10 nM.
`COc1ccc2c(c1)C(=O)N(C[C@]1(c3ccc(C#Cc4cccnc4)cc3)NC(=O)NC1=O)C2` [Compound 95]: the Ki under setting [1] was in the range of 10 to 100 nM.
Turning to `COc1ccc2c(c1)C(=O)N(CC1(c3ccc(-c4ccccc4CCN)cc3)NC(=O)NC1=O)C2` (stereo not shown) [Compound 96], under setting [1], the Ki lay in the range of 10 to 100 nM.
For the molecule `COc1ccc2c(c1)C(=O)N(C[C@@]1(c3cc4cc(/C=N/O)ccc4o3)NC(=O)NC1=O)C2` [Compound 97], the Ki reads like this: under setting [2], 0.39 nM; under setting [1], < 10 nM.
`COc1ccc2c(c1)C(=O)N(C[C@@]1(c3cc4cc(C(N)=O)cnc4o3)NC(=O)NC1=O)C2` [Compound 98]: the Ki runs as follows: under setting [2], 0.71 nM; under setting [1], < 10 nM.
In the case of `COc1ccc2c(c1)C(=O)N(C[C@@]1(c3ccc(C(=O)N4CCOCC4)cc3)NC(=O)NC1=O)C2` [Compound 99], the Ki under setting [1] was < 10 nM.
For the molecule `COc1ccc2c(c1)C(=O)N(C[C@@]1(c3ccc(C(=O)O)cc3)NC(=O)NC1=O)C2` [Compound 100], the inhibition constant (Ki) under setting [1] is < 10 nM.
In the case of `COc1ccc2c(c1)C(=O)N(C[C@@]1(c3ccc(C#N)cc3)NC(=O)NC1=O)C2` [Compound 101], the Ki under setting [1] was < 10 nM.
For `COc1ccc2c(c1)C(=O)N(C[C@@]1(c3cc4cc(C#N)ccc4o3)NC(=O)NC1=O)C2` [Compound 102], under setting [1], the Ki is < 10 nM.
Turning to `COc1ccc2c(c1)C(=O)N(C[C@@]1(c3ccc(C(N)=O)cc3)NC(=O)NC1=O)C2` [Compound 103], the Ki under setting [1] was < 10 nM.
Same read-out and setting: in the case of `COc1ccc2c(c1)C(=O)N(C[C@@]1(c3ccc(-c4cccnc4C#N)cc3)NC(=O)NC1=O)C2` [Compound 104] it was < 10 nM; in that of `COc1ccc2c(c1)C(=O)N(C[C@@]1(c3ccc(-c4ccc(S(N)(=O)=O)cc4)cc3)NC(=O)NC1=O)C2` [Compound 105], < 10 nM.
